{"source": "patent US5948814A", "about": "“Genistein for the treatment of cystic fibrosis” (priority 1998, dated 1999)", "key": {"wt-CFTR [1]": {"target": "T1, wt-CFTR (Homo sapiens, UniProt P13569)", "T1 sequence (P13569 whole entry)": "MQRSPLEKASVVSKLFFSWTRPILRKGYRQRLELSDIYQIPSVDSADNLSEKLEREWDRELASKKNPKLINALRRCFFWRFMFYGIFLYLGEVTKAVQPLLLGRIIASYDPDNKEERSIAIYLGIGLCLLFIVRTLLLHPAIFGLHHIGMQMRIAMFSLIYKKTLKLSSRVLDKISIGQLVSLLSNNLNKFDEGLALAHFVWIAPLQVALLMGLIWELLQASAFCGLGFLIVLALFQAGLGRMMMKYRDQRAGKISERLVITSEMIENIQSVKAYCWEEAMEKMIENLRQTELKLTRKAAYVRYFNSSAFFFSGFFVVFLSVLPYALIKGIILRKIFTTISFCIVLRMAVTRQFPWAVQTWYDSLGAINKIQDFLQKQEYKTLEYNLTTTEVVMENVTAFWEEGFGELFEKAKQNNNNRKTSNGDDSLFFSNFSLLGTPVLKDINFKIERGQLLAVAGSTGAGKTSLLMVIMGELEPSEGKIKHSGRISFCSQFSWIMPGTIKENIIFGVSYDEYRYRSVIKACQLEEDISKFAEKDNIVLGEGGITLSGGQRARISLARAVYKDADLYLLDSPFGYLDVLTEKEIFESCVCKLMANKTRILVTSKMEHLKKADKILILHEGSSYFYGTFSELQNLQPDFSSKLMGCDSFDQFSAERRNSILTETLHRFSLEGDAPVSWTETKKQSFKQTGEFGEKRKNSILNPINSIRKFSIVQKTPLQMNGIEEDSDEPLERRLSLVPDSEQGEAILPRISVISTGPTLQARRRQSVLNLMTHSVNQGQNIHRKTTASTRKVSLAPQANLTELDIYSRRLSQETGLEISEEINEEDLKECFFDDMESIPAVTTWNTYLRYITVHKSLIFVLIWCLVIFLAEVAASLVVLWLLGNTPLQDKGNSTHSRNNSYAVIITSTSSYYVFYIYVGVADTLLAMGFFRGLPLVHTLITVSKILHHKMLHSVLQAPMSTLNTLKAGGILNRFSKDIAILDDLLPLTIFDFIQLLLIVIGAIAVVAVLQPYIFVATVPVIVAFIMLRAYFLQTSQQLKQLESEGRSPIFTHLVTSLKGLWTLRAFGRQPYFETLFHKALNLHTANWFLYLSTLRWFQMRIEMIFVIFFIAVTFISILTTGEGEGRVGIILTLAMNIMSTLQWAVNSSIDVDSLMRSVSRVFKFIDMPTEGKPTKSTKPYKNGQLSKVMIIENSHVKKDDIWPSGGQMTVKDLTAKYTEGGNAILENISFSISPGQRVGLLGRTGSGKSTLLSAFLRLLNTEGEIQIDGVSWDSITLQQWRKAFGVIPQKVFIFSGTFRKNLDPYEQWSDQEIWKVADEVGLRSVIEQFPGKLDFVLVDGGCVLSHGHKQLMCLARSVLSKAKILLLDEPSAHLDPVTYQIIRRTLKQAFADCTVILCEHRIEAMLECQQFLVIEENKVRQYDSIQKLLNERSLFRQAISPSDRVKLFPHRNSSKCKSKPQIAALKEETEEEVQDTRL", "procedure": "(§1) Electrophysiology: CFTR channel currents were recorded at room temperature (~22° C.) with a patch-clamp amplifier (EPC-9, Heka Electronic), filtered at 100 Hz with a built-in three-pole Bessel filter, and stored on videotapes. Data were subsequently refiltered at 25 Hz with an eight-pole Bessel filter (Frequency Device, Havervill, Mass.) and captured onto a hard disk at a sampling rate of 50 Hz. […] Patch-clamp electrodes were made from Corning 7052 glass capillaries (Warner Instrument, Hammed, Conn.). The pipette resistance was usually 3-5 M.OMEGA., and the seal resistance was >20 G.OMEGA.. The pipette solution contained (in mM) 140 N-methyl-D-glucamine chloride (NMDG-C1), 2 MgCl2, 5Ca Cl2, and 10 HEPES (pH 7.4 with NMDG). The superfusion solution contained (in mM) 150 […], 2 MgCl2, 1 EGTA, 5 glucose, and 5 HEPES (pH 7.4 with NaOH). In excised inside-out patch experiments, the bath solution contained (in mM) 130 MNDG-Cl, 10 EGTA, 10 HEPES, 20 tetraethylammonium chloride, 8 Tris, and 2 MgCl2 (pH 7.4 with NMDG). Pipette potential was held at 50 mV relative to the bath. Downward deflections represent channel opening."}, "wt-CFTR [2]": {"target": "T1, wt-CFTR", "procedure": "(§2) FIGS. 9A and B are recordings of the effects of genistein on CFTR gating in excised inside-out patches from NIH/3T3-CFTR or NIH/3T3-ΔF508 cells. CFTR channels were activated by 10 μM forskolin +20 nM calyculin A before excision into an inside-out configuration. Presence of calyculin A helps to slow channel dephosphorylation. (A): continuous 14.5 minute recording of a patch containing wt-CFTR. Expanded traces are 22 seconds in length. ATP (500 μM) with or without 20 μM genistein was present as indicated. (B): 2 traces of 44 seconds in length of an excised inside-out patch with CFTR-ΔF508.\nas §1\n(§3) Channels were first activated in cell-attached patches with forskolin plus calyculin A, a membrane-permeant phosphatase inhibitor [Suganuma et al., 1991]. Patches were then excised into an inside-out configuration.", "remark": "listed apart in the source"}, "ΔF508-CFTR [3]": {"target": "T2, ΔF508-CFTR (Homo sapiens, UniProt P13569, DEL508-508)", "T2 sequence (P13569 with tags, fused parts or gaps DEL508-508)": "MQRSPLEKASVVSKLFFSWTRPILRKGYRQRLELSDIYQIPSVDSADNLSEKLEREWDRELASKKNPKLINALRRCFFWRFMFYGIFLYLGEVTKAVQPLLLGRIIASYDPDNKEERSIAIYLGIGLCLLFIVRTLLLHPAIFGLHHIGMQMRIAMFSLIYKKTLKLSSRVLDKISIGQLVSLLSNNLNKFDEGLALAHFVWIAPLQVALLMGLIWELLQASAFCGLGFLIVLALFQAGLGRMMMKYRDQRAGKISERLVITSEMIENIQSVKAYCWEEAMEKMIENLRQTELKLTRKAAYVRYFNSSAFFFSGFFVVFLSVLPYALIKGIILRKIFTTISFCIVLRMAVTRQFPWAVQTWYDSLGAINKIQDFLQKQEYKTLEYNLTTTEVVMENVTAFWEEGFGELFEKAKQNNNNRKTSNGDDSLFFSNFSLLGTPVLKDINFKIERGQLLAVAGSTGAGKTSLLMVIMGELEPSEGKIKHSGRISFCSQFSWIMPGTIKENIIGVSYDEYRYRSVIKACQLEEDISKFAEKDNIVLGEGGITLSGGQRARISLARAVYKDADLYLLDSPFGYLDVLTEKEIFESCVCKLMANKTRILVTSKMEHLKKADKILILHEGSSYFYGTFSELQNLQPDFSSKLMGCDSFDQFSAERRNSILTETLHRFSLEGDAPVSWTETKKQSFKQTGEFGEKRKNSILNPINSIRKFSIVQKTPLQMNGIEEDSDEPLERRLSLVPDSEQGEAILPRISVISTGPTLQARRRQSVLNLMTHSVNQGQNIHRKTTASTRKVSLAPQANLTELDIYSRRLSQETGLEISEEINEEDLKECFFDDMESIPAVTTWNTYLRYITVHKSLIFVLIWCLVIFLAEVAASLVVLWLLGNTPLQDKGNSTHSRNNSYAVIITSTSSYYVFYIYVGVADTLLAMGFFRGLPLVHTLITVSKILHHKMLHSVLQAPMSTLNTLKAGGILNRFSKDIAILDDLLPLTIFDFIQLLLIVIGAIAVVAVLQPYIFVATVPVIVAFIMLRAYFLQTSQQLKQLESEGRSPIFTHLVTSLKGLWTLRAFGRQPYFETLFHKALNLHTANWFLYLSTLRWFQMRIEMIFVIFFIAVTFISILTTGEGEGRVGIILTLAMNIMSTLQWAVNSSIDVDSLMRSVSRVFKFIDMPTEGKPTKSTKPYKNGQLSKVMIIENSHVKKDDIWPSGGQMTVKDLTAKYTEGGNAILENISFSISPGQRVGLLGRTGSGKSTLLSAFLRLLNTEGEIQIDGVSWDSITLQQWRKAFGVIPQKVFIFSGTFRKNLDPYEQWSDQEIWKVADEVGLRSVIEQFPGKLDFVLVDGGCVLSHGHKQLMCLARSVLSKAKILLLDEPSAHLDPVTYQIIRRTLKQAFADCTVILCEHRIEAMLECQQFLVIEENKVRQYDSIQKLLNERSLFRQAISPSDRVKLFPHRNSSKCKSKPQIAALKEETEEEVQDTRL", "assay": "CFTR gating in excised inside-out patches, NIH/3T3-ΔF508 cells", "procedure": "as §2, §1, §3"}, "CFTR": {"system": "CFTR", "assay": "In vivo phosphorylation of CFTR (32P) versus I- efflux, NIH/3T3-CFTR cells", "type": "cell-based", "settings": "50 μM genistein; 0-10 μM forskolin; all phosphorylation levels", "procedure": "I^- efflux: I^- efflux was measured as described previously [Reenstra et al., 1996]. Briefly, cells were incubated for 30 minutes with 37° C. I^- efflux buffer [(in mM) 141 NaCl, 4 KCl, 1 KH2 PO4, 0.9 MgCl2, 1.7 CaCl2. 10 N-2hydroxyethylpiperazine-N'-2-ethanesulfonic acid (HEPES), 25 glucose pH 7.4] containing 5 μCi/ml carrier-free ^125 I^- (sodium salt). Extracellular ^125 I^- was removed by washing four times with efflux buffer, and the rate of loss of intracellular ^125 I^- was determined by replacing the bathing solution with 37° C. efflux buffer every 60 seconds for 12 minutes. Time-dependent rates of ^125 I^- efflux are calculated from R=ln(^125 I^-t1 /^125 I^-t2)/(t1-t2), where ^125 I^-t is the intracellular ^125 I^- at time t and t1 and t2 are successive time points. Dose-response curves were obtained from peak rates of 125I^- efflux by nonlinear least squares fitting to R=[Ro +Rmx ·([fsk]/K1/2)]/[1+([fsk]/K1/2)], where Ro and Rmx are the rates of ^125 I efflux at zero and infinite concentration of forskolin (fsk), and K1/2 is the concentration of agonist that gives a half-maximal change."}, "tyrosine kinases": {"system": "tyrosine kinases", "settings": "cited from earlier work"}, "topoisomerases": {"system": "topoisomerases", "settings": "cited from earlier work"}, "[4]": {"system": "acid secretion and osteopathic bone resorption", "settings": "cited from earlier work"}, "protein phosphatase": {"system": "protein phosphatase", "settings": "cited from earlier work"}, "ΔF508-CFTR [5]": {"target": "T2, ΔF508-CFTR", "assay": "Patch cramming, ΔF508-CFTR patch excised and crammed into NIH/3T3-CFTR cell", "type": "cell-based", "parameters": "expressed in transfected cells; host or cells: NIH/3T3 cells, stably transfected (NIH/3T3-ΔF508, gift of Dr. Richard Mulligan)", "settings": "ΔF508-CFTR crammed into NIH/3T3-CFTR cell; 10 μM forskolin, 50 μM genistein; n=2", "text": "Downward deflections represent channel opening."}, "[6]": {"settings": "ATP with genistein, stated for both wt- and ΔF508-CFTR"}}}
{"smiles": "O=c1c(-c2ccc(O)cc2)coc2cc(O)cc(O)c12", "note": "[Genistein, 4',5,7-trihydroxyisoflavone]", "values": [{"measurement": "magnitude of potentiation by genistein after patch cramming", "setting": "wt-CFTR [1]; patch crammed into a different NIH/3T3-CFTR cell", "result": "similar"}, {"measurement": "increase of mean current by genistein", "setting": "wt-CFTR [1]; wt-CFTR crammed into NIH/3T3-ΔF508 cell, 10 μM forskolin, 50 μM genistein, n=3", "result": "3.2±0.3", "unit": "fold"}, {"measurement": "increase of ATP-induced currents by genistein", "setting": "wt-CFTR [2]; 50 μM genistein, n=8", "result": "2.2±0.1", "unit": "fold"}, {"measurement": "opening of channels in absence of ATP", "setting": "wt-CFTR [2]; 50 μM genistein, no ATP", "result": "did not open wt-CFTR channels in the absence of ATP"}, {"measurement": "channel open time", "setting": "wt-CFTR [2]; [6]", "result": "2,033±173 milliseconds"}, {"measurement": "increase in Po by genistein", "setting": "wt-CFTR [2]; excised patches, ATP", "result": "twofold increase in the Po"}, {"measurement": "channel open time", "setting": "ΔF508-CFTR [3]; [6]", "result": "2,033±173 milliseconds"}, {"measurement": "increase of ATP-dependent channel current by genistein", "setting": "ΔF508-CFTR [3]; genistein, n=7", "result": "2.3±0.5", "unit": "fold"}, {"measurement": "channel activity at given CFTR phosphorylation level", "setting": "CFTR", "result": "channel activity was greater in the presence of genistein"}, {"measurement": "inhibition of tyrosine kinases", "setting": "tyrosine kinases", "result": "inhibits"}, {"measurement": "inhibition of topoisomerases", "setting": "topoisomerases", "result": "inhibits"}, {"measurement": "inhibition of acid secretion and osteopathic bone resorption", "setting": "[4]", "result": "effectively inhibits acid secretion and osteopathic bone resorption"}, {"measurement": "inhibition of protein phosphatase", "setting": "protein phosphatase", "result": "no protein phosphatase has been shown to be inhibited by genistein"}, {"measurement": "enhancement of ΔF508-CFTR channel activity by genistein", "setting": "ΔF508-CFTR [5]", "result": "19±11", "unit": "fold"}]}
